Experimental findings from paper PMC12287261 (Scientific Reports, 2025) are described below.

Molecules are shown by their SMILES.

This test relates to CamASNase. In words: initial rates at varied L-asparagine, Lineweaver-Burk. It counts as biochemical, Chryseomicrobium amylolyticum. The note with it: pH 7.4, 37 °C; L-asparagine 1 to 80 µM.

Turning to `NC(=O)C[C@H](N)C(=O)O` [L-asparagine], the Michaelis constant (Km) (commonly the substrate concentration at which the rate is half of its maximum) turned out to be 6.36 µM.
